Consider 84 compounds from PubChem BioAssay AID588780 (Sanford-Burnham Center for Chemical Genomics, 2011).

Activity calls are given as the source filed them.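 How the source made its calls: active means compounds whose fitted half-maximal concentration in the cell-protection dose series is at or below a set limit; inactive means the rest.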

The subject of this test is H9c2 cardiomyocytes, 2-deoxyglucose stress, ATP luminescence, 2 h. The test can be described thus: H9c2 cell survival under 2-deoxyglucose stress – uHTS hits, dose response (AID 588780).
In general, IC50 refers to the concentration that inhibits the measured activity by half. Take `CCOc1cccc(Nc2cc3n(c(=O)n2)CCc2cc(OC)c(OC)cc2-3)c1`: the IC50 is 29.9 µM.
`O=C(N/N=C/c1ccccn1)c1cccs1`: the IC50 is > 79 µM (inactive).
As to `CC1Cc2ccccc2N1C(=O)c1cc2c(=O)n3ccccc3nc2n1C` (centres undefined), the IC50 is > 79 µM (inactive).
The figure for `COc1ccc(CCn2c(=N)c(C(=O)NCC3CCCO3)cc3c(=O)n4cccc(C)c4nc32)cc1OC` (centres undefined) is 58 µM (inactive).
For `O=C(Cn1[nH]c(=O)c2ccccc2c1=O)NCC1COc2ccccc2O1` (centres undefined) the value was > 79 µM (inactive).
As for `Nc1nonc1-n1nnc(C(=O)N/N=C/c2ccccn2)c1CNc1ccccc1`, the IC50 was 37.7 µM (inactive).
Turning to `Cc1ccccc1NC(=O)COC(=O)CCc1nc2ccccc2c(=O)[nH]1`, the IC50 was > 79 µM (inactive).
The figure for `O=C(CCc1nc2ccccc2c(=O)[nH]1)NCCN1C(=O)S/C(=C\c2ccc(OC(F)F)cc2)C1=O` is > 79 µM (inactive); for `Cc1c(/C=N/NC(=O)c2ccc(O)cc2)c2ccccn2c1C(=O)c1ccc(F)cc1` it is > 79 µM (inactive); for `Cc1ccc(N2C(=O)CS/C2=C(\C(Cl)=C(Cl)Cl)[N+](=O)[O-])cc1` it is > 79 µM (inactive).
Take `COc1ccc(OC)c(NC(=O)c2sc3ncnc(N4CCN(c5ccccn5)CC4)c3c2C)c1`: the IC50 was > 79 µM (inactive).
For `CCOc1cccc(-c2c(C(=O)N/N=C(\C)c3ccccn3)nnn2-c2nonc2N)c1` the value was > 79 µM (inactive); for `O=[N+]([O-])c1ccc(-c2nc(Nc3ccc(O)cc3)c3ccccc3n2)cc1`, > 79 µM (inactive); for `Cn1c(=O)c2c(nc(NCc3cccnc3)n2Cc2cccc(C(F)(F)F)c2)n(C)c1=O`, > 79 µM (inactive).
As for `O=C(NCCN1CCOCC1)c1cnn2c(-c3ccccc3)cc(-c3ccccc3)nc12`, the IC50 was 18.5 µM.
Regarding `Cc1ccc(C(C)C)c(OCC(=O)NNC(=O)Cn2[nH]c(=O)c3ccccc3c2=O)c1`, the IC50 is 75.1 µM (inactive).
On to `O=C1NC(Cc2ccc(O)cc2)c2nc3ccc(F)cc3c(=O)n2-c2cc3ccccc3cc21` (centres undefined), for which the IC50 is 12.4 µM.
In the case of `CC(=O)Nc1cccc(NC(=O)c2cc(-c3cccnc3)nc3ccc(Cl)cc23)c1`, the IC50 was > 79 µM (inactive).
With `O=C(COc1cccc2c1CCNC2=O)Nc1ccc(F)cc1`, the IC50 was > 79 µM (inactive).
For `O=C(Nc1ccccc1)c1cccc2c(-c3cccnc3)coc12` the value was > 79 µM (inactive); for `CC(=O)c1cccc(-c2cnc3c(NC=O)cc(-c4cccc(C(=O)N(C)C)c4)cn23)c1`, 19.5 µM.
As to `O=C(CCCSc1ccccc1)Nc1nc(-c2ccccn2)cs1`, the IC50 is > 79 µM (inactive).
On to `CC(=O)OCc1nc2sc(C)c(C)c2c(=O)[nH]1`, for which the IC50 is > 79 µM (inactive).
For `CC1CCN(CCCNC(=O)c2n[nH]c(=O)c3ccccc23)CC1` the value was > 79 µM (inactive); for `COc1ccc(N2CC(C(=O)NCc3n[nH]c(=O)c4ccccc34)CC2=O)cc1` (centres undefined), > 79 µM (inactive).
For `CCCCC(=O)Nc1cc(C)c2c(=O)oc3ccccc3c2n1` the value was > 79 µM (inactive); for `COc1cc(/C=N/NC(=O)NC23CC4CC(CC(C4)C2)C3)ccc1OCC(N)=O`, > 79 µM (inactive).
`CN(C)S(=O)(=O)c1ccc(NC(=O)COC(=O)Cn2[nH]c(=O)c3ccccc3c2=O)cc1`: the IC50 was 9.56 µM.
For the compound `O=C(CN1CCN(c2ccccn2)CC1)Nc1ccc([N+](=O)[O-])cc1C(=O)Nc1ccccc1F`, the IC50 was 11.3 µM.
Take `Cc1ccc(C(=O)Nc2nc(-c3ccccn3)cs2)s1`: the IC50 is > 79 µM (inactive).
In the case of `CC(=O)Nc1cccc(-c2cc(NC=O)c3ncc(-c4ccc(C(C)=O)cc4)n3c2)c1`, the IC50 was > 79 µM (inactive).
Take `CCOC(=O)C1=C(C)NC(C)=C(C(=O)OCC)C1C(=O)OCC(=O)NC(C)C`: the IC50 is 19.7 µM.
For `Cc1ccc(-c2[nH]c3cc(C(N)=O)ccc3c(=O)c2O)cc1`, the IC50 was > 79 µM (inactive).
Turning to `COc1cc(C)cc2oc(=O)c(CC(=O)N3CCN(C(=O)C4COc5ccccc5O4)CC3)c(C)c12` (centres undefined), the IC50 is 34.9 µM (inactive).
The figure for `CNc1ccccc(C(=O)/C=C/c2ccccc2OC)c1=O` is > 79 µM (inactive); for `Brc1ccc(-c2ccc(/C=N/Nc3nc(N4CCOCC4)nc(N4CCOCC4)n3)o2)cc1` it is > 79 µM (inactive).
As for `CCCn1c(=O)c(C(=O)Nc2ccccc2)c(O)c2ccccc21`, the IC50 is > 79 µM (inactive).
Regarding `CCNC(=O)/C(C#N)=C/c1c(N(Cc2ccccc2)Cc2ccccc2)nc2ccccn2c1=O`, the IC50 is 24.6 µM.
Take `O=C(Cn1[nH]c(=O)c2ccccc2c1=O)OCC(=O)N1CCCc2ccccc21`: the IC50 was 51.3 µM (inactive).
With `Cn1c(=O)n(CCc2ccccc2)c(=O)c2c1nc1n2CCN1Cc1ccco1`, the IC50 is 21.6 µM.
For `CC(OC(=O)Cn1[nH]c(=O)c2ccccc2c1=O)C(=O)Nc1ccccc1[N+](=O)[O-]` (centres undefined) the value was 27.9 µM; for `O=C(O)c1nn(CCOc2ccccc2F)c(=O)c2ccccc12`, 25.7 µM; for `O=C(Nc1nc2ccccc2n1Cc1ccccc1)c1ccco1`, 14.7 µM.
The figure for `CSc1nc(Cl)c(Br)c(N2CC2)n1` is > 79 µM (inactive).
As to `CCOc1ccc2nc(NC(=O)CN3CCC(n4nnc5cc(F)ccc54)CC3)sc2c1`, the IC50 is > 79 µM (inactive).
As for `CCCCn1nc(NC(=O)c2cccs2)c2cc3cc(OC)ccc3nc21`, the IC50 was > 79 µM (inactive).
For the compound `NC(=O)c1nsc(C(=O)N(c2ccccc2)C(C(=O)NC2CCCC2)c2ccc3ncccc3c2)c1N` (centres undefined), the IC50 was > 79 µM (inactive).
For the compound `COc1ccc(S(=O)(=O)N2CCOCC2)cc1NC(=O)c1cccc2c(=O)c(C)c(-c3ccccc3)oc12`, the IC50 was 18 µM.
Turning to `CC(C)N1C(=O)S/C(=C/c2ccc3c(c2)n(C)c(=O)n3C)C1=O`, the IC50 was > 79 µM (inactive).
Regarding `O=C1c2ccccc2C(=O)N1CCCCSc1nc2ccccc2c(=O)n1CCCN1CCOCC1`, the IC50 is 58.6 µM (inactive).
For the compound `CCn1c(SCC(=O)N2CCN(c3ccccc3)CC2)nc2c(c1=O)SC(C)C2` (centres undefined), the IC50 was > 79 µM (inactive).
Take `COc1cc(-c2nnc(-c3ccc(N4CCOCC4)cc3)o2)cc(OC)c1OC`: the IC50 is > 79 µM (inactive).
The figure for `O=C1OCCN1C(=O)[C@H]1[C@H](c2ccc([N+](=O)[O-])cc2)C(c2ccc(F)cc2)=NN1c1ccc(Br)cc1` is 6.03 µM; for `CCC(Oc1ccccc1)C(=O)Nc1ccccc1C(=O)N1CCCCC1` (centres undefined) it is 25.3 µM.
For `CCc1cc(C(=O)Nc2nc(-c3ccccn3)cs2)sc1C`, the IC50 is > 79 µM (inactive).
Take `COc1ccc(OC)c(NC(=O)COC(=O)c2c3c(nc4ccccc24)CCCC3)c1`: the IC50 was > 79 µM (inactive).
As to `CCN(CC(=O)Nc1cc(Cl)ccc1C)C(=O)C1CCN(c2ncnc3sc(C)c(C)c23)CC1`, the IC50 is > 79 µM (inactive).
For `COc1cc2c(C#CCCCO)c(-c3ccsc3)oc(=O)c2cc1OC` the value was > 79 µM (inactive); for `COC(=O)c1cc(Cl)c(NC(=O)/C=C/c2ccc(OC)c(OC)c2)cc1OC`, > 79 µM (inactive).
`O=C(N/N=C/c1ccccn1)c1[nH]c2ccc([N+](=O)[O-])cc2c1-c1ccccc1`: the IC50 was 13.2 µM.
For `Cc1cc(Nc2ccccc2C(=O)O)nc2nc3ccccc3c(=O)n12` the value was > 79 µM (inactive).
For `COc1ccc(C(=O)Nc2cc(C)nn2-c2nc3ccccc3[nH]2)c(OC)c1`, the IC50 was 12.3 µM.
For `Oc1c(Br)cc(Br)cc1C=Nc1cccc2ncccc12` the value was 27.3 µM.
`COc1cccc(Nc2nc(-c3sc(NC(=O)c4ccco4)nc3C)cs2)c1`: the IC50 was > 79 µM (inactive).
Turning to `COc1cc(/C=N/NC(=O)c2cccnc2)ccc1OS(=O)(=O)c1ccc(F)cc1`, the IC50 was 14.1 µM.
As for `COc1cc(OC)c2ccc(=O)oc2c1C(CC(=O)N1CCN(c2ccccc2)CC1)c1ccc2c(c1)OCO2` (centres undefined), the IC50 is > 79 µM (inactive).
As to `CC(C)(C)NC(=O)c1cc(NC(=O)c2cccs2)cc(NC(=O)c2cccs2)c1`, the IC50 is > 79 µM (inactive).
In the case of `NC(=O)c1nsc(C(=O)N(c2ccccc2F)C(C(=O)NCc2ccccc2)c2ccc(O)cc2)c1N` (centres undefined), the IC50 is > 79 µM (inactive).
For `O=c1[nH]ccc2c(O)cccc12`, the IC50 is > 79 µM (inactive).
In the case of `c1cc2[nH]snc2c2nc(C3CC3)nc12`, the IC50 was 10.2 µM.
For `O=C(NCc1ccc2c(c1)OCO2)c1n[nH]c(=O)c2ccccc12`, the IC50 was > 79 µM (inactive).
For `CC(C(=O)NC1CCCC1)N(C(=O)Cn1nnc(-c2ccc(F)cc2)n1)c1ccccc1F` (centres undefined), the IC50 was > 79 µM (inactive).
For the compound `CCn1c(O)c(/C=N/N=C2CCCCC2)c2cc(C3=NNC(=O)CC3)ccc21`, the IC50 was 12.5 µM.
As to `COc1cccc(/C=N/NC(=O)c2[nH]c(C)c(C(=O)N/N=C/c3cccc(OC)c3)c2C)c1`, the IC50 was 11.9 µM.
In the case of `CCOC(=O)C(C)Oc1ccc(C2NC(=O)NC(C)=C2C(C)=O)cc1Br` (centres undefined), the IC50 is > 79 µM (inactive).
For `CCCCn1nc(C(=O)Oc2ccc3c(C)cc(=O)oc3c2)c2ccccc2c1=O`, the IC50 was > 79 µM (inactive).
`COc1cc(C(=O)Nc2ccc(NC(=O)c3ccco3)nc2)cc(OC)c1OC`: the IC50 was 53.5 µM (inactive).
For `O=C1COc2ccc(-c3n[nH]c(=O)c4ccccc34)cc2N1`, the IC50 was > 79 µM (inactive).
In the case of `CCOC(=O)c1c2c3c(cccc3n(C)c1=O)C(=O)c1ccccc1-2`, the IC50 was > 79 µM (inactive).
For `Cc1nc(N2CCN(c3ccccn3)CC2)c2c(C)c(C(=O)Nc3ccccc3F)sc2n1`, the IC50 was 10.5 µM.
For `Cc1cccc(C(=O)NC(C(=O)Nc2nc(-c3ccccn3)cs2)C(C)C)c1` (centres undefined) the value was 12.7 µM; for `CCOC(=O)C1CCN(c2cc3c(cc2NC(=O)c2ccccc2Br)n(C)c(=O)n3C)CC1`, 45.5 µM (inactive); for `Cc1ccc(CN(C)C(=O)COC(=O)CSc2ccc(C(N)=O)cc2[N+](=O)[O-])cc1`, 31.3 µM (inactive).
For `C1=C(c2ccccc2)CCN(c2nc3ccccc3n3cnnc23)C1`, the IC50 is 27.6 µM.
